Measured values from EP1339379B1, “NOVEL USE OF PROTEIN HYDROLYSATES” (Henkel Kommanditgesellschaft auf Aktien, priority 2000, dated 2002).

Experiment: Hair-restructuring effect by HP-DSC: melting point of permed hair strands after post-treatment with the active
Conditions: melting point of the hair (DSC, Perkin Elmer DSC-7); permed strands dipped 10 min at 23°C in 1% aqueous solution of the active at pH 3, rinsed 1 min, dried, rested 16 h; comparison without post-treatment 149,8
From the text: Strähnen der Fa. Alkinco (0,5g, Code 6634) wurden einer herkömmlichen Dauerwellbehandlungen mit dem Handelsprodukt Poly Lock-Normale Dauerwelle unterzogen. Im Rahmen dieser Dauerwellbehandlung wurden die Fasern in einem ersten Schritt für 40 Minuten bei Raumtemperatur der Reduktionslösung (enthaltend 7,9 Gew.-% Thioglykolsäure) ausgesetzt, mit reinem Wasser gespült und anschließend bei Raumtemperatur für 10 Minuten fixiert (Oxidationslösung, enthaltend 2,6 Gew.-% Wasserstoffperoxid). Nach der oxidativen Behandlung wurden die Fasern gespült und getrocknet.
Die Strähnen wurden jeweils bei einer Temperatur von 23°C 10 Minuten in eine 1% ige wäßrige Lösung der jeweiligen Wirkstoffe bei einem pH - Wert von 3, welcher mit Natronlauge oder Salzsäure eingestellt wurde, getaucht. Anschließend wurde jede Haarsträhne 1 Minute mit klarem Wasser gespült, getrocknet und 16 h ruhen gelassen.
Mittels einer DSC-Analyse (Perkin Elmer DSC-7) wurden die folgenden in Tabelle 1 dargestellten Schmelzpunkte ermittelt. Eine genaue Beschreibung der Methode findet sich beispielsweise in der DE 196 173 95 A1

Row | Substance | Schmelzpunkt in °C
1 | Poly-D/L-Alanin | 151,8 °C
2 | Poly-L-Serin | 151,9 °C
